Assays:
female NMRI mice = assay: Anorectic action: cumulated milk consumption after oral administration; assay type: in vivo
Experimental: The anorectic action was tested on female NMRI mice. After withdrawal of food for 24 hours, the test preparation of the invention was administered via a stomach tube. Kept individually and with free access to drinking water, the animals were offered evaporated milk 30 minutes after the administration of the preparation. The consumption of evaporated milk was determined every half-hour for 7 hours and the general condition of the animals was observed. The measured milk consumption was compared with that of untreated control animals.

Compound: OC12N=C(c3ccccc3)SC1(Br)Cc1cc(Cl)ccc12 (stereo not drawn) [Example 1, 8a-Bromo-6-chloro-2-phenyl-8,8a-dihydroindeno[1,2-d]thiazol-3a-ol]
- melting point: 148 °C
- Number of animals/ cumulated milk consumption of the treated animals N/[ml] (female NMRI mice; oral dose 50 mg/kg via stomach tube, female NMRI mice after 24 h food withdrawal, evaporated milk consumption determined over 7 hours, N=5): 5/0.64 ml
- Reduction of the cumulated milk consumption in % of the control (female NMRI mice; oral dose 50 mg/kg, female NMRI mice, compared to untreated control animals): 82%
